Test results: patent publication US7723368B2, “Amino-5-[4-(difluoromethoxy)phenyl]-5-phenylimidazolone compounds for the inhibition of beta-secretase” (Wyeth LLC, priority 2007, dated 2010)

Target: human BACE1 (Homo sapiens, UniProt P56817)
Assay: BACE1 fluorescent kinetic assay (cleavage of peptide substrate WABC-6)
Format: biochemical
Conditions: 10 nM enzyme, 25 μM substrate WABC-6, pH 4.5, room temperature
Procedure: Evaluation of BACE1 Binding Affinity of Test Compounds
Fluorescent Kinetic Assays
Dilution and mixing steps: total reaction volume: 100 μL
100 μM substrate dilution in 1×PBS was prepared, and
Fluorescence Readings: Readings at λex 320 nm and λem 420 nm are taken every 40 sec for 30 min at room temperature and the linear slope for substrate cleavage rate (vi) determined.

Chain of human BACE1 (P56817 46-501): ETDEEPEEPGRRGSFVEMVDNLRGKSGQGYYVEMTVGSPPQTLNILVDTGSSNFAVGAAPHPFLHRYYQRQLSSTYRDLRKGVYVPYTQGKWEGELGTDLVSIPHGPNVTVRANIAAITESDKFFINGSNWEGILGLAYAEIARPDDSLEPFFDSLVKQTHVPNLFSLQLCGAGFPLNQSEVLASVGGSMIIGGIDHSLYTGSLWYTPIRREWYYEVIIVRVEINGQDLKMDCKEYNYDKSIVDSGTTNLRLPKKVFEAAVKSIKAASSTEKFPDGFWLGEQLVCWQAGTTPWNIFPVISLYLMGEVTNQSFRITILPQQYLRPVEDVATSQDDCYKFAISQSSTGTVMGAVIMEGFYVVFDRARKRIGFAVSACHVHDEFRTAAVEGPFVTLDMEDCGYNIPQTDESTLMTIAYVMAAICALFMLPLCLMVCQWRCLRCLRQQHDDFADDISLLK

SMILES	IC50 (Activity Table, Examples 1-108) [nM]	IC50 (Examples 109-141) [nM]
C=CCCCOc1cccc([C@@]2(c3ccc(OC(F)F)cc3)N=C(N)N(C)C2=O)c1 [Example 10C, (R)-2-amino-4-(4-(difluoromethoxy)phenyl)-1-methyl-4-(3-(pent-4-enyloxy)phenyl)-1H-imidazol-5(4H)-one]	< 100	–
COCCC1CC(c2cccc(C3(c4ccc(OC(F)F)cc4)N=C(N)N(C)C3=O)c2)C1 (centres unmarked) [Example 59, 2-amino-5-[4-(difluoromethoxy)phenyl]-5-{3-[3-(2-methoxyethyl)cyclobutyl]phenyl}-3-methyl-3,5-dihydro-4H-imidazol-4-one]	110 to 1000	–
C=CC(C)COc1cccc([C@@]2(c3ccc(OC(F)F)cc3)N=C(N)N(C)C2=O)c1 (stereo partly drawn) [Example 10F, (4R)-2-amino-4-(4-(difluoromethoxy)phenyl)-1-methyl-4-(3-(2-methylbut-3-enyloxy)phenyl)-1H-imidazol-5(4H)-one]	< 100	–
CN1C(=O)C(c2ccc(OC(F)F)cc2)(c2ccc(F)c(C#CCCF)c2)N=C1N (centres unmarked) [Example 102, 2-amino-5-[4-(difluoromethoxy)phenyl]-5-[4-fluoro-3-(4-fluorobut-1-yn-1-yl)phenyl]-3-methyl-3,5-dihydro-4H-imidazol-4-one]	< 100	–
CN1C(=O)[C@](c2ccc(OC(F)F)cc2)(c2cccc(CCCCC#N)c2)N=C1N [Example 11B, 5-(3-{(4S)-2-amino-4-[4-(difluoromethoxy)phenyl]-1-methyl-5-oxo-4,5-dihydro-1H-imidazol-4-yl}phenyl)pentanenitrile]	> 1000	–
CC(C)Nc1cccc(C2(c3ccc(OC(F)F)cc3)N=C(N)N(C)C2=O)c1 (centres unmarked) [Example 46]	110 to 1000	–
CC(C)C#Cc1cc(C2(c3ccc(OC(F)F)cc3)N=C(N)N(C)C2=O)ccc1F (centres unmarked) [Example 138, 2-amino-5-[4-(difluoromethoxy)phenyl]-5-[4-fluoro-3-(3-methylbut-1-yn-1-yl)phenyl]-3-methyl-3,5-dihydro-4H-imidazol-4-one]	–	< 100
C/C=C/c1cc(C2(c3ccc(OC(F)F)cc3)N=C(N)N(C)C2=O)ccc1F (centres unmarked) [Example 75C, 2-amino-5-[4-(difluoromethoxy)phenyl]-5-{4-fluoro-3-[(1E)-prop-1-en-1-yl]phenyl}-3-methyl-3,5-dihydro-4H-imidazol-4-one]	> 1000	–
CC(=O)Nc1cccc(C2(c3ccc(OC(F)F)cc3)N=C(N)N(C)C2=O)c1 (centres unmarked) [Example 116, N-(3-{2-amino-4-[4-(difluoromethoxy)phenyl]-1-methyl-5-oxo-4,5-dihydro-1H-imidazol-4-yl}phenyl)acetamide]	–	110 to 1000
Cc1cccc(C2(c3ccc(OC(F)F)cc3)N=C(N)N(C)C2=O)c1 (centres unmarked) [Example 95, 2-Amino-5-[4-(difluoromethoxy)phenyl]-3-methyl-5-(3-methylphenyl)-3,5-dihydro-4H-imidazol-4-one]	110 to 1000	–
CN1C(=O)[C@@](c2ccc(OC(F)F)cc2)(c2ccc(F)c(/C=C/CCF)c2)N=C1N [Example 140, (5R)-2-amino-5-[4-(difluoromethoxy)phenyl]-5-{4-fluoro-3-[(1E)-4-fluorobut-1-en1-yl]phenyl}-3-methyl-3,5-dihydro-4H-imidazol-4-one]	–	> 1000
CN1C(=O)[C@@](c2ccc(OC(F)F)cc2)(c2ccc(F)c(C#CCF)c2)N=C1N [Example 107, (5R)-2-amino-5-[4-(difluoromethoxy)phenyl]-5-[4-fluoro-3-(3-fluoroprop-1-yn-1-yl)phenyl]-3-methyl-3,5-dihydro-4H-imidazol-4-one]	< 100	–
CN1C(=O)C(c2ccc(OC(F)F)cc2)(c2cccc(C3CC(CCF)C3)c2)N=C1N (centres unmarked) [Example 58, 2-amino-5-[4-(difluoromethoxy)phenyl]-5-{3-[3-(2-fluoroethyl)cyclobutyl]phenyl}-3-methyl-3,5-dihydro-4H-imidazol-4-one]	110 to 1000	–
CCCCNCc1cccc(C2(c3ccc(OC(F)F)cc3)N=C(N)N(C)C2=O)c1 (centres unmarked) [Example 65, 2-amino-5-{3-[(butylamino)methyl]phenyl}-5-[4-(difluoromethoxy)phenyl]-3-methyl-3,5-dihydro-4H-imidazol-4-one]	110 to 1000	–
CN1C(=O)C(c2ccc(OC(F)F)cc2)(c2cccc(O)c2)N=C1N (centres unmarked) [Example 81, 2-Amino-5-[4-(difluoromethoxy)phenyl]-5-(3hydroxyphenyl)-3-methyl-3,5-dihydro-4H-imidazol-4-one]	110 to 1000	–
CC(C)=CC(=O)Nc1cccc(C2(c3ccc(OC(F)F)cc3)N=C(N)N(C)C2=O)c1 (centres unmarked) [Example 31]	> 1000	–
COCCC(C)c1cccc(C2(c3ccc(OC(F)F)cc3)N=C(N)N(C)C2=O)c1 (centres unmarked) [Example 111, 2-amino-5-[4-(difluoromethoxy)phenyl]-5-[3-(3-methoxy-1-methylpropyl)phenyl]-3-methyl-3,5-dihydro-4H-imidazol-4-one]	–	> 1000
CN1C(=O)C(c2ccc(OC(F)F)cc2)(c2cccc(NC(=O)c3cccs3)c2)N=C1N (centres unmarked) [Example 42]	110 to 1000	–
CCCCNc1cccc(C2(c3ccc(OC(F)F)cc3)N=C(N)N(C)C2=O)c1 (centres unmarked) [Example 44]	< 100	–

SMILES	IC50 (Activity Table, Examples 1-108) [nM]	IC50 (Examples 109-141) [nM]
CN1C(=O)C(c2ccc(OC(F)F)cc2)(c2cccc(NC(=O)C(F)(F)F)c2)N=C1N (centres unmarked) [Example 25]	< 100	–
CC(C)NCc1cccc(C2(c3ccc(OC(F)F)cc3)N=C(N)N(C)C2=O)c1 (centres unmarked) [Example 61, 2-Amino-5-(4-difluoromethoxy-phenyl)-5-[3-(isopropylamino-methyl)-phenyl]-3-methyl-3,5-dihydro-imidazol-4-one]	110 to 1000	–
C=C(C)CCOc1cccc([C@@]2(c3ccc(OC(F)F)cc3)N=C(N)N(C)C2=O)c1 [Example 10G, (R)-2-amino-4-(4-(difluoromethoxy)phenyl)-1-methyl-4-(3-(3-methylbut-3-enyloxy)phenyl)-1H-imidazol-5(4H)-one]	< 100	–
CN1C(=O)[C@](c2ccc(OC(F)F)cc2)(c2ccc(F)c(C#CCCF)c2)N=C1N [Example 103, (5S)-2-amino-5-[4-(difluoromethoxy)phenyl]-5-[4-fluoro-3-(4-fluorobut-1-yn-1-yl)phenyl]-3-methyl-3,5-dihydro-4H-imidazol-4-one]	> 1000	–
CN1C(=O)C(c2ccc(OC(F)F)cc2)(c2ccc(F)c(C#CCF)c2)N=C1N (centres unmarked) [Example 99, 2-amino-5-[4-(difluoromethoxy)phenyl]-5-[4-fluoro-3-(3-fluoroprop-1-yn-1-yl)phenyl]-3-methyl-3,5-dihydro-4H-imidazol-4-one]	< 100	–
CN1C(=O)[C@@](c2ccc(OC(F)F)cc2)(c2cccc(CCCCC#N)c2)N=C1N [Example 11A, 5-(3-{(4R)-2-amino-4-[4-(difluoromethoxy)phenyl]-1-methyl-5-oxo-4,5-dihydro-1H-imidazol-4-yl}phenyl)pentanenitrile]	< 100	–
C/C=C\c1cc([C@]2(c3ccc(OC(F)F)cc3)N=C(N)N(C)C2=O)ccc1F [Example 76A, (5S)-2-amino-5-[4-(difluoromethoxy)phenyl]-5-{4-fluoro-3-[(1Z)-prop-1-en-1-yl]phenyl}-3-methyl-3,5-dihydro-4H-imidazol-4-one]	> 1000	–
CN1C(=O)C(c2ccc(OC(F)F)cc2)(c2cccc(NC(=O)COCc3ccccc3)c2)N=C1N (centres unmarked) [Example 34]	110 to 1000	–
CN1C(=O)[C@@](c2ccc(OC(F)F)cc2)(c2ccc(F)c(C#CCCF)c2)N=C1N [Example 104, (5R)-2-amino-5-[4-(difluoromethoxy)phenyl]-5-[4-fluoro-3-(4-fluorobut-1-yn-1-yl)phenyl]-3-methyl-3,5-dihydro-4H-imidazol-4-one]	< 100	–
CN1C(=O)C(c2ccc(OC(F)F)cc2)(c2cccc(NC3CCCC3)c2)N=C1N (centres unmarked) [Example 47]	< 100	–
CN1C(=O)C(c2ccc(OC(F)F)cc2)(c2cccc(NC(=O)c3ccco3)c2)N=C1N (centres unmarked) [Example 33]	< 100	–
CCCNc1cccc(C2(c3ccc(OC(F)F)cc3)N=C(N)N(C)C2=O)c1 (centres unmarked) [Example 43]	< 100	–
C=CCOc1cccc([C@@]2(c3ccc(OC(F)F)cc3)N=C(N)N(C)C2=O)c1 [Example 10H, (R)-4-(3-(allyloxy)phenyl)-2-amino-4-(4-(difluoromethoxy)phenyl)-1-methyl-1H-imidazol-5(4H)-one]	< 100	–
C/C=C/c1cc([C@@]2(c3ccc(OC(F)F)cc3)N=C(N)N(C)C2=O)ccc1F [Example 77B, (5R)-2-amino-5-[4-(difluoromethoxy)phenyl]-5-{4-fluoro-3-[(1E)-prop-1-en-1-yl]phenyl}-3-methyl-3,5-dihydro-4H-imidazol-4-one]	< 100	–
Cc1cc2cc(C3(c4ccc(OC(F)F)cc4)N=C(N)N(C)C3=O)ccc2o1 (centres unmarked) [Example 113, 2-amino-5-[4-(difluoromethoxy)phenyl]-3-methyl-5-(2-methyl-1-benzofuran-5-yl)-3,5-dihydro-4H-imidazol-4-one]	–	> 1000
C/C=C/c1cc([C@]2(c3ccc(OC(F)F)cc3)N=C(N)N(C)C2=O)ccc1F [Example 77A, (5S)-2-amino-5-[4-(difluoromethoxy)phenyl]-5-{4-fluoro-3-[(1E)-prop-1-en-1-yl]phenyl}-3-methyl-3,5-dihydro-4H-imidazol-4-one]	> 1000	–
CCCNCc1cccc(C2(c3ccc(OC(F)F)cc3)N=C(N)N(C)C2=O)c1 (centres unmarked) [Example 64, 2-amino-5-[4-(difluoromethoxy)phenyl]-3-methyl-5-{3-[(propylamino)-methyl]phenyl}-3,5-dihydro-4H-imidazol-4-one]	110 to 1000	–
CN1C(=O)C(c2ccc(OC(F)F)cc2)(c2cccc(NC(=O)C3CCC3)c2)N=C1N (centres unmarked) [Example 29]	110 to 1000	–
C=CCCCCc1cccc(C2(c3ccc(OC(F)F)cc3)N=C(N)N(C)C2=O)c1 (centres unmarked) [Example 125, 2-amino-5-[4-(difluoromethoxy)phenyl]-5-(3-hex-5-en-I-ylphenyl)-3-methyl-3,5-dihydro-4H-imidazol-4-one]	–	< 100
